Measured values from patent US20230174538A1, “Tricyclic heterocycles” (Merck Patent GmbH, priority 2020, published 2023).

system: YAP-TEAD interaction; assay: SK-HEP-1 reporter assay (8xTEAD responsive elements driving NanoLuc luciferase); type: cell-based; details: Homo sapiens, SK-HEP1, SK-HEP-1 reporter assay
Description: To identify inhibitors of YAP-TEAD interaction, 8×TEAD responsive elements driving the NanoLuc® luciferase gene were stably integrated into SK-HEP-1 cells (ECACC #: 91091816).
For the assay, cells were treated in duplicates with the test compounds in a 10-point dose, with the top concentration starting at 30 μM (final concentration in assay). After a 24 hour incubation at 37° C., 95% rH, and 5% CO2, a luciferase substrate/lysis reagent mix (NanoGlo™, Promega) was added to the cells, allowing the quantification of cellular luciferase activity.
Cell Media: The cells were cultured in the following media: MEM, +10% FBS, +1× GlutaMAX, +1 mM Sodium-Pyruvate, +100 μM Non-essential amino acids, +0.1 mg/ml Hygromycin. The media used for the assay was: MEM (w/o Phenol Red), +10% FBS, +1× GlutaMAX, +1 mM Sodium-Pyruvate, +100 μM Non-essential amino acids, +0.5% Pen/Strep
Reagents: The reagents used are listed below:
Cell culture: The cells were examined using an inverted microscope to check for health and cell density. To dissociate adherent cells, the monolayer of cells was washed once with pre-warmed PBS. After removing the PBS, 3 ml pre-warmed Accutase® was added to a F75 flask, dispersed evenly and the flask was allowed to sit in incubator for ˜4-5 minutes.
When a single cell suspension was obtained, 7 ml of prewarmed growth media was added and resuspended with the cells. The cell suspension was transferred to a sterile 15 ml conical centrifuge tube, and spun for 5 min at 300×g, RT. The supernatant was discarded and the pellet was resuspended in 10 ml of pre-warmed growth media.
The total cell count was determined, and 20 μl of the desired cell number was added to each well of a 384 well plate using a Multidrop Combi. The plates were then incubated for 24 hours at 37° C., 95% rH, and 5% CO2.
Compound treatment: 24 hours after seeding, the cells were treated with compounds.
A 1:333 dilution of compounds, diluted in DMSO, was made to get a final concentration of 0.3% DMSO per well. To transfer the compounds to the assay plate, 120 nl was shot from Labcyte low dead volume plates to the cell plates containing 20 μl media/well with the ECHO 555 liquid handling system.
After treatment, the cells were fed with 20 μl fresh pre-warmed assay media using a Multidrop combi.
The assay plates were then incubated for another 24 h at 37° C., 95% rH, and 5% CO2.
Luciferase readout: 24 h after treatment, the plates were taken out of the incubator and were allowed to equilibrate to RT. 30 μl of NanoGlo® reagent was added to the plates in the dark. Plates were shaken for 20 min on a Teleshake (˜1500 rpm) in the dark. The luminescence was then measured using an EnVision microplate reader. The IC50 values were generated using Genedata Screener®.

First: Cn1cc2c3cc(C(=O)NC4CC(O)C45CCOCC5)ccc3n(-c3ccc(C(F)(F)F)cc3)c2n1 (stereo not drawn) [Example B16, N-{3-hydroxy-7-oxaspiro[3.5]nonan-1-yl}-2-methyl-8-[4-(trifluoromethyl)phenyl]-2H,8H-pyrazolo[3,4-b]indole-5-carboxamide]
Second: Cn1cc2c3cc(C(=O)N4CC(O)C5(CCOCC5)C4)ccc3n(-c3ccc(C(F)(F)F)cc3)c2n1 (stereo not drawn) [Example B56, 2-(2-methyl-8-[4-(trifluoromethyl)phenyl]-2H,8H-pyrazolo[3,4-b]indole-5-carbonyl}-8-oxa-2-azaspiro[4.5]decan-4-ol]
The IC50 of the first is lower: 100 to 10000 nM for the first, over 10000 nM for the second.

COCc1ocnc1CNC(=O)c1ccc2c(c1)c1cn(C)nc1n2-c1ccc(C(F)(F)F)cc1 [Example B49, N-{[5-(methoxymethyl)-1,3-oxazol-4-yl]methyl}-2-methyl-8-[4-(trifluoromethyl)phenyl]-2H,8H-pyrazolo[3,4-b]indole-5-carboxamide] and COc1nn(C)cc1CNC(=O)c1ccc2c(c1)c1cn(C)nc1n2-c1ccc(C(F)(F)F)cc1 [Example B93, N-[(3-methoxy-1-methyl-1H-pyrazol-4-yl)methyl]-2-methyl-8-[4-(trifluoromethyl)phenyl]-2H,8H-pyrazolo[3,4-b]indole-5-carboxamide] fall in the same range of IC50: 10 to 100 nM for the first, 10 to 100 nM for the second.

Compared with Cn1cc2c3cc(C(=O)NC4CCCn5nccc54)ccc3n(-c3ccc(C(F)(F)F)cc3)c2n1 (stereo not drawn) [Example B76, 2-methyl-N-(4H,5H,6H,7H-pyrazolo[1,5-a]pyridin-4-yl}-8-[4-(trifluoromethyl)phenyl]-2H,8H-pyrazolo[3,4-b]indole-5-carboxamide], Cn1cc2c3cc(C(=O)NC4CN(c5ccncn5)C4)ccc3n(-c3ccc(C(F)(F)F)cc3)c2n1 [B104^] is higher in IC50: 10 to 100 nM for the first, over 10000 nM for the second. The first is the more potent here.

CCOC1CC(N(C)C(=O)c2ccc3c(c2)c2cn(C)nc2n3-c2ccc(C(F)(F)F)cc2)C1(C)C (stereo not drawn) [Example B99, N-(3-ethoxy-2,2-dimethylcyclobutyl)-N,2-dimethyl-8-[4-(trifluoromethyl)phenyl]-2H,8H-pyrazolo[3,4-b]indole-5-carboxamide] and CO[C@H]1C[C@@H](CCO)N(C(=O)c2ccc3c(c2)c2cn(C)nc2n3-c2ccc(C(F)(F)F)cc2)C1 (single isomer, unassigned) [Example B4] cannot be ordered by IC50: over 10000 nM for the first, over 10000 nM for the second.

Compared with Cn1cc2c3cc(C(=O)NC(c4ncon4)C4CC4)ccc3n(-c3ccc(C(F)(F)F)cc3)c2n1 (stereo not drawn) [Example B31, N-[cyclopropyl(1,2,4-oxadiazol-3-yl)methyl]-2-methyl-8-[4-(trifluoromethyl)phenyl]-2H,8H-pyrazolo[3,4-b]indole-5-carboxamide], Cc1ncncc1[C@@H](C)NC(=O)c1ccc2c(c1)c1cn(C)nc1n2-c1ccc(C(F)(F)F)cc1 [B118^] is higher in IC50: 10 to 100 nM for the first, 100 to 10000 nM for the second.

Compared with Cc1n[nH]c(C)c1C(C)NC(=O)c1ccc2c(c1)c1cn(C)nc1n2-c1ccc(C(F)(F)F)cc1 (stereo not drawn) [Example B21, N-[1-(3,5-dimethyl-1H-pyrazol-4-yl)ethyl]-2-methyl-8-[4-(trifluoromethyl)phenyl]-2H,8H-pyrazolo[3,4-b]indole-5-carboxamide], CC(NC(=O)c1ccc2c(c1)c1cn(C)nc1n2-c1ccc(C(F)(F)F)cc1)c1ccc[nH]1 (stereo not drawn) [Example B8, 2-methyl-N-[1-(1H-pyrrol-2-yl)ethyl]-8-[4-(trifluoromethyl)phenyl]-2H,8H-pyrazolo[3,4-b]indole-5-carboxamide] is higher in IC50: 10 to 100 nM for the first, 100 to 10000 nM for the second.

Compared with Cn1cc2c3cc(C(=O)N4CCC45CCCOCC5)ccc3n(-c3ccc(C(F)(F)F)cc3)c2n1 (stereo not drawn) [B108^], Cn1cc2c3cc(C(=O)N4CCCC4C4CCCO4)ccc3n(-c3ccc(C(F)(F)F)cc3)c2n1 (stereo not drawn) [Example B48, 1-{2-methyl-8-[4-(trifluoromethyl)phenyl]-2H,8H-pyrazolo[3,4-b]indole-5-carbonyl}-2-(oxolan-2-yl)pyrrolidine] is lower in IC50: over 10000 nM for the first, 100 to 10000 nM for the second.

Cn1cc2c(n1)c1cc(S(C)(=O)=O)ccc1n2-c1ccc(C(F)(F)F)cc1 [Example 33, 7-methanesulfonyl-2-methyl-4-[4-(trifluoromethyl)phenyl]-2H,4H-pyrazolo[4,3-b]indole] and Cn1cc2c(n1)c1cc(C(=O)O)ccc1n2-c1ccc(C(F)(F)F)cc1 [Example 4, 2-methyl-4-[4-(trifluoromethyl)phenyl]-2H,4H-pyrazolo[4,3-b]indole-7-carboxylic acid] fall in the same range of IC50: 100 to 10000 nM for the first, 100 to 10000 nM for the second.

First: CC(CCc1ccccn1)NC(=O)c1ccc2c(c1)c1cn(C)nc1n2-c1ccc(C(F)(F)F)cc1 (stereo not drawn) [Example B79, 2-methyl-N-[4-(pyridin-2-yl)butan-2-yl]-8-[4-(trifluoromethyl)phenyl]-2H,8H-pyrazolo[3,4-b]indole-5-carboxamide]
Second: CC(CCn1cncn1)NC(=O)c1ccc2c(c1)c1cn(C)nc1n2-c1ccc(C(F)(F)F)cc1 (stereo not drawn) [Example B90, 2-methyl-N-[4-(1H-1,2,4-triazol-1-yl)butan-2-yl]-8-[4-(trifluoromethyl)phenyl]-2H,8H-pyrazolo[3,4-b]indole-5-carboxamide]
The IC50 of the first is higher: 100 to 10000 nM for the first, 10 to 100 nM for the second.

Compared with Cn1cc2c3cc(C(=O)NCCc4cn[nH]c4)ccc3n(-c3ccc(C(F)(F)F)cc3)c2n1 [B100^], Cn1cc2c3cc(C(=O)NCCc4cc(O)no4)ccc3n(-c3ccc(C(F)(F)F)cc3)c2n1 [B113^] is higher in IC50: 1 to 10 nM for the first, 100 to 10000 nM for the second.

COCc1noc(C(C)NC(=O)c2ccc3c(c2)c2cn(C)nc2n3-c2ccc(C(F)(F)F)cc2)n1 (stereo not drawn) [Example B86, N-{1-[3-(methoxymethyl)-1,2,4-oxadiazol-5-yl]ethyl}-2-methyl-8-[4-(trifluoromethyl)phenyl]-2H,8H-pyrazolo[3,4-b]indole-5-carboxamide] and CC(C)CC(NC(=O)c1ccc2c(c1)c1cn(C)nc1n2-c1ccc(C(F)(F)F)cc1)c1nc[nH]n1 (stereo not drawn) [Example B24, 2-methyl-N-[3-methyl-1-(1H-1,2,4-triazol-3-yl)butyl]-8-[4-(trifluoromethyl)phenyl]-2H,8H-pyrazolo[3,4-b]indole-5-carboxamide] fall in the same range of IC50: 100 to 10000 nM for the first, 100 to 10000 nM for the second.

First: Cn1cc2c3cc(C(=O)NCc4n[nH]c5c4CCCC5)ccc3n(-c3ccc(C(F)(F)F)cc3)c2n1 [Example B29, 2-methyl-N-[(4,5,6,7-tetrahydro-1H-indazol-3-yl)methyl]-8-[4-(trifluoromethyl)phenyl]-2H,8H-pyrazolo[3,4-b]indole-5-carboxamide]
Second: Cc1nc(CCCNC(=O)c2ccc3c(c2)c2cn(C)nc2n3-c2ccc(C(F)(F)F)cc2)n[nH]1 [B121^]
The IC50 of the first is higher: over 10000 nM for the first, 100 to 10000 nM for the second. The second is the more potent here.

Cn1cc2c3cc(C(=O)NCC4(n5cncn5)CC4)ccc3n(-c3ccc(C(F)(F)F)cc3)c2n1 [B103^] and CCCn1ncnc1CNC(=O)c1ccc2c(c1)c1cn(C)nc1n2-c1ccc(C(F)(F)F)cc1 [B138^] fall in the same range of IC50: 100 to 10000 nM for the first, 100 to 10000 nM for the second.

Cn1cc2c3cc(C(=O)NCC4CC45CCOC5)ccc3n(-c3ccc(C(F)(F)F)cc3)c2n1 (stereo not drawn) [Example B75, 2-methyl-N-({5-oxaspiro[2.4]heptan-1-yl}methyl)-8-[4-(trifluoromethyl)phenyl]-2H,8H-pyrazolo[3,4-b]indole-5-carboxamide] and Cn1cc2c3cc(C(=O)NC[C@@H]4C[C@H]4c4ccco4)ccc3n(-c3ccc(C(F)(F)F)cc3)c2n1 [B128^] fall in the same range of IC50: 100 to 10000 nM for the first, 100 to 10000 nM for the second.

Cn1cc2c3cc(C(=O)N[C@H]4c5ccccc5C[C@@H]4O)ccc3n(-c3ccc(C(F)(F)F)cc3)c2n1 (single isomer, unassigned) [Example B2] and Cn1cc2c3cc(C(=O)N[C@@H]4C[C@H](O)[C@H]4n4cccn4)ccc3n(-c3ccc(C(F)(F)F)cc3)c2n1 (relative stereo) [Example B26, N-[(1R,2S,3S)-3-hydroxy-2-(1H-pyrazol-1-yl)cyclobutyl]-2-methyl-8-[4-(trifluoromethyl)phenyl]-2H,8H-pyrazolo[3,4-b]indole-5-carboxamide] fall in the same range of IC50: 100 to 10000 nM for the first, 100 to 10000 nM for the second.

First: CC(CNC(=O)c1ccc2c(c1)c1cn(C)nc1n2-c1ccc(C(F)(F)F)cc1)c1ccc(F)cn1 (stereo not drawn) [Example B92, N-[2-(5-fluoropyridin-2-yl)propyl]-2-methyl-8-[4-(trifluoromethyl)phenyl]-2H,8H-pyrazolo[3,4-b]indole-5-carboxamide]
Second: COCCC1CN(C(=O)c2ccc3c(c2)c2cn(C)nc2n3-c2ccc(C(F)(F)F)cc2)CCO1 (stereo not drawn) [B111^]
The IC50 of the first is lower: 100 to 10000 nM for the first, over 10000 nM for the second. The first is the more potent here.

Cn1cc2c3cc(C(=O)N4CC5(CCCC5)CC4CO)ccc3n(-c3ccc(C(F)(F)F)cc3)c2n1 (stereo not drawn) [Example B10, (2-{2-methyl-8-[4-(trifluoromethyl)phenyl]-2H,8H-pyrazolo[3,4-b]indole-5-carbonyl}-2-azaspiro[4.4]nonan-3-yl)methanol] was tested, and the IC50 was 100 to 10000 nM.
